In US12516060B2, “Solid freebase forms of 5-chloro-2-(4-((2-hydroxy-2-methylpropyl)amino)pyrido[3,4-d]pyridazin-1-yl)phenol for inhibiting NLRP3 and uses thereof” (Ventus Therapeutics U.S., Inc., priority 2023, dated 2026):

Experiments:
Type in all cases: physicochemical
[1] = Thermal treatment of solid forms; settings: held 10 min; for XRPD after thermal treatment to 210° C.: 30 to 210° C. at 10° C./min, cooled to 30° C.
Experimental: Thermal treatment of the Amorphous freebase was carried out. 10 mg of amorphous Compound 1 freebase was weighed into a 100 μL DSC pan. The pan was heated at a rate of 10° C./min to 200° C., held at 200° C. for 10 min, then cooled at a rate of 20° C./min to 25° C. Data not shown. The resulting solids were brittle and dark-orange. The solids sampled for XRPD, NMR, and HPLC purity analysis indicated decomposition of Compound 1 freebase rather than maintaining the amorphous state or conversion to a crystalline form.
Thermal treatment of Form III freebase to 210° C. was carried out. Approximately 5 mg of Form III freebase was weighed into a DSC pan. The sample was heated from 30° C. to 210° C. at a rate of 10° C./min, held at 210° C. for 10 min, then cooled from 210° C. to 30° C. at a rate of 20° C./min. […] Data not shown. The peaks at 16.2 °2θ and 20.1 °2θ may have been due to trace amounts of Form II freebase (Example 3).
Thermal treatment of Form IV freebase to 210° C. was carried out. Approximately 5 mg of Form IV freebase was weighed into a DSC pan. The sample was heated from 30° C. to 210° C. at a rate of 10° C./min, held at 210° C. for 10 min, then cooled from 210° C. to 30° C. at a rate of 20° C./min.

[2] = Solvent addition to Amorphous freebase
[3] = First set of competitive slurry experiments (Form I-IV freebases); settings: for relative stability of Forms I-IV freebases: five solvent systems; for evidence of form by XRPD after 2 days: slurries seeded with Forms I-IV, RT or 50° C., all experiments
Experimental: Competitive slurry experiments were carried out with Form I-IV freebases at two temperatures, room temperature (RT) and 50° C., in five solvents/solvent systems. First, saturated solutions of Form I freebase (Example 2) were prepared at each temperature in each solvent system. To make the saturated solutions, Form I freebase was added to 2 mL of solvent already stirring at the desired temperature, either room temperature (RT) or at 50° C. Once a thin slurry was observed, the samples were left to equilibrate overnight. After stirring overnight, the stir bars were removed to allow the solids to settle, and the supernatant was pipetted into clean 4 mL vials containing a 10 mm stir bar.
The supernatant was then left to stir for an additional 15 min prior to adding seeds (approximately 5 mg per form, pre-weighed) of the following patterns: Form I freebase (Example 2), Form II freebase (Example 3), Form III freebase (Example 4) and Form IV freebase (Example 5). Samples of the slurries were plated for XRPD analysis immediately after seeding. The slurries were then sampled again after 2 days and 7 days at the respective temperatures.

[4] = Dry and solvent-drop milling of Form I freebase; settings: 16 s at 3500 rpm
Experimental: Dry and solvent-drop milling on pure-phase Form I freebase was performed using a ball mill with ¼ inch stainless steel ball as milling media. Approximately 30-35 mg of Form I freebase was weighed into a milling capsule and 1 vol. of solvent (solvent drop) was added. The milling was carried out for 16 s at 3500 rpm. Overall, no new patterns were identified from dry and solvent-drop milling experiments. […] Loss of crystallinity was most evident in the dry-milled sample, though Form I freebase pattern was still readily distinguished.

[5] = Dynamic Vapor Sorption (DVS); settings: for water uptake, weight gain between 5-95% relative humidity (RH) / hygroscopicity: DVS; for DVS mass change 5-95% RH (wt. %) / water uptake, weight gain between 5-95% relative humidity (RH): 5-95% RH; for hygroscopicity: all adsorbed water lost during the drying cycle; for XRPD pre- and post-DVS: form stability after DVS cycle
Experimental: DVS was performed using TA Instruments Q5000SA. The sample (5-15 mg) was loaded into a metallic quartz sample pan, suspended from a microbalance, and exposed to a humidified stream of nitrogen gas. Weight changes were relative to a matching empty reference pan opposite the sample, suspended from the microbalance. The sample was held for a minimum of 10 min at each level and only progressed to the next humidity level if there was <0.002% change in weight between measurements (interval: 5 s) or 45 min had elapsed (for 5-65% RH) or 2 h had elapsed (for 80 and 95% RH). Mass change by DVS is related to hygroscopicity.

[6] = Solid form stability studies, 75% RH at 40° C. for one week (XRPD and HPLC); settings: for XRPD (tested material): 75% ± 5% RH at 40° C. ± 2° C. for 1 week; for Purity % a/a (tested material) / Purity % a/a (input material): HPLC; for Purity % a/a (tested material): after 75% ± 5% RH at 40° C. ± 2° C. for 1 week; for Purity % a/a (input material): before stability test
Experimental: Solid form stability studies were performed on Form I-V freebase forms by weighing approximately 10-15 mg of the crystalline material into 4 mL vials and covering with a lab grade task wipe (Kimwipe). These vials were placed inside a stability chamber set at 75%±5% relative humidity (RH) at 40° C.±2° C., where they were left for one week (7 full days). The retrieved material was then analyzed by XRPD and HPLC. In each case, the initial material and tested material were identical by XRPD, with the exception of Form I freebase, where an extra peak at 5.8 °2θ in the initial material was absent after the stability test. HPLC purities of the tested material were essentially unchanged from those of the initial material.

[7] = Drying of Patterns overnight at 50° C.; settings: XRPD
Experimental: For fast-cooling crystallization, Form I freebase was obtained from methanol (MeOH), MeOH:water (9:1 vol.), ethanol (EtOH):water (9:1 vol.), ethyl acetate (EtOAc):N,N-dimethylformamide (DMF) (9:1 vol.), and EtOH:tetrahydrofuran (THF) (3:7 vol.). Form II freebase (Example 3) was obtained from THF, and from acetonitrile:dimethylformamide (DMF) (9:1 vol.) as a mixture with Form I freebase. Pattern C (Example 7) was obtained from isopropanol (IPA):water (9:1 vol.) at −20° C.
Pattern B (Example 7) was obtained from dimethylacetamide (DMAc)/methyl isobutyl ketone (MIBK) after standing overnight at −20° C. […] A mixture of Form III freebase (Example 4) (major) and Form I freebase (minor) was obtained from the direct addition of water into dimethylsulfoxide (DMSO). The ratio of the two patterns was unchanged after drying in vacuo at 50° C. for 4 h. Reverse addition (DMSO/water) gave Form III freebase (Example 4) alone, with no evidence of Form I freebase. Reverse antisolvent addition (dimethylacetamide (DMAc)/water or N-methylpyrrolidone (NMP)/water) gave Form IV freebase (Example 5).
Pattern B freebase was obtained from dimethylacetamide (DMAc)/methyl isobutyl ketone (MIBK) after standing overnight at −20° C. See Example 2, Table 2B. […] The XRPD of Pattern B freebase, taken before drying, is provided in FIG. 7C, and the corresponding signal list is provided in Table 7B.
Pattern C freebase was obtained from isopropanol (IPA):water (9:1 vol.) at −20° C.

SMILES: CC(C)(O)CNc1nnc(-c2ccc(Cl)cc2O)c2ccncc12 [Amorphous freebase, 5-chloro-2-(4-((2-hydroxy-2-methylpropyl)amino)pyrido[3,4-d]pyridazin-1-yl)phenol]
- XRPD, NMR, and HPLC purity analysis after thermal treatment ([1]; heated 10° C./min to 200° C., cooled to 25° C.): decomposition
- form conversion upon addition of solvent ([2]; 5 vol. acetone): Rapid conversion of the Amorphous freebase to Form I freebase
- form conversion upon addition of solvent ([2]; toluene): rapid conversion of the Amorphous freebase to Form II freebase

SMILES: CC(C)(O)CNc1nnc(-c2ccc(Cl)cc2O)c2ccncc12 [Form I freebase, 5-chloro-2-(4-((2-hydroxy-2-methylpropyl)amino)pyrido[3,4-d]pyridazin-1-yl)phenol]
- relative stability of Forms I-IV freebases ([3]; RT and 50° C.): more stable
- XRPD after milling ([4]; None (dry)): Form I
- XRPD after dry and solvent-drop milling (overall) ([4]; ball mill): remained largely unchanged
- XRPD after milling ([4]; solvent drop 1 vol. Acetone): Form I
- XRPD after milling ([4]; solvent drop 1 vol. Isopropanol:water (9:1 vol.)): Form I
- XRPD after milling ([4]; solvent drop 1 vol. Methanol (MeOH)): Form I
- XRPD after milling ([4]; solvent drop 1 vol. Tetrahydrofuran (THF)): Form I
- XRPD after milling ([4]; solvent drop 1 vol. acetonitrile:dimethylformamide (8:2 vol.)): Form I
- DVS mass change 5-95% RH (wt. %) [5]: 0.5 wt. %
- water uptake, weight gain between 5-95% relative humidity (RH) [5]: 0.5%
- hygroscopicity [5]: slightly, hygroscopic
- XRPD pre- and post-DVS [5]: remain unchanged
- XRPD (tested material) [6]: Form I
- Purity % a/a (tested material) [6]: 97.94 % a/a
- Purity % a/a (input material) [6]: 98.06 % a/a

SMILES: CC(C)(O)CNc1nnc(-c2ccc(Cl)cc2O)c2ccncc12 [Form II freebase, 5-chloro-2-(4-((2-hydroxy-2-methylpropyl)amino)pyrido[3,4-d]pyridazin-1-yl)phenol]
- form favored after 7 days ([3]; RT and 50° C., 7 days): favored in most solvent systems
- relative stability of Forms I-IV freebases ([3]; RT and 50° C.): more stable
- form favored, Form II vs Form I ([3]; overall conclusion of first set): favored over Form I freebase in all solvent systems except acetone:water (7:3 vol.)
- DVS mass change 5-95% RH (wt. %) [5]: 1.03 wt. %
- water uptake, weight gain between 5-95% relative humidity (RH) [5]: about 1.03%
- hygroscopicity [5]: slightly, hygroscopic
- XRPD pre- and post-DVS [5]: remained unchanged
- XRPD (tested material) [6]: Form II
- Purity % a/a (tested material) [6]: 98.12 % a/a
- Purity % a/a (input material) [6]: 98.12 % a/a

SMILES: CC(C)(O)CNc1nnc(-c2ccc(Cl)cc2O)c2ccncc12 [Form III freebase, 5-chloro-2-(4-((2-hydroxy-2-methylpropyl)amino)pyrido[3,4-d]pyridazin-1-yl)phenol]
- relative stability of Forms I-IV freebases ([3]; RT and 50° C.): converted rapidly
- evidence of form by XRPD after 2 days [3]: no evidence
- DVS mass change 5-95% RH (wt. %) [5]: 0.24 wt. %
- water uptake, weight gain between 5-95% relative humidity (RH) [5]: about 0.24%
- hygroscopicity [5]: slightly, hygroscopic
- XRPD pre- and post-DVS [5]: remained unchanged
- XRPD (tested material) [6]: Form III
- Purity % a/a (tested material) [6]: 99.60 % a/a
- Purity % a/a (input material) [6]: 99.54 % a/a
- XRPD after thermal treatment to 210° C. [1]: conversion to Form I freebase

SMILES: CC(C)(O)CNc1nnc(-c2ccc(Cl)cc2O)c2ccncc12 [Form IV freebase, 5-chloro-2-(4-((2-hydroxy-2-methylpropyl)amino)pyrido[3,4-d]pyridazin-1-yl)phenol]
- relative stability of Forms I-IV freebases ([3]; RT and 50° C.): converted rapidly
- evidence of form by XRPD after 2 days [3]: no evidence
- DVS mass change 5-95% RH (wt. %) [5]: 1.59 wt. %
- water uptake, weight gain between 5-95% relative humidity (RH) [5]: about 1.59%
- hygroscopicity [5]: slightly, hygroscopic
- XRPD pre- and post-DVS [5]: remained unchanged
- XRPD (tested material) [6]: Form IV
- Purity % a/a (tested material) [6]: 98.53 % a/a
- Purity % a/a (input material) [6]: 99.48 % a/a
- XRPD after thermal treatment to 210° C. [1]: conversion to Form I freebase

SMILES: CC(C)(O)CNc1nnc(-c2ccc(Cl)cc2O)c2ccncc12 [Pattern B freebase, 5-chloro-2-(4-((2-hydroxy-2-methylpropyl)amino)pyrido[3,4-d]pyridazin-1-yl)phenol]
- form after drying overnight at 50° C. [7]: conversion to Form I freebase
- form after drying overnight at 50° C. ([7]; listed as Pattern B): conversion to Form I freebase

SMILES: CC(C)(O)CNc1nnc(-c2ccc(Cl)cc2O)c2ccncc12 [Pattern C freebase, 5-chloro-2-(4-((2-hydroxy-2-methylpropyl)amino)pyrido[3,4-d]pyridazin-1-yl)phenol]
- form after drying overnight at 50° C. [7]: converted to the low-crystalline version of Form I freebase (Pattern A freebase)
- form after drying overnight at 50° C. ([7]; listed as Pattern C): converted to Pattern A
